This note sets out measurements from patent US8916702B2 (priority 2012, dated 2014).

The experiment has as its system HCV pseudoparticles (genotype 1a HCV E1 and E2 envelope, H77C isolate). Kind of experiment: microbe, parasite or virus in culture. It is filed as cell-based.
Where [1] appears, read: Hepatitis C virus, Huh-7, read-out: Activity (EC50 class), HCV pseudoparticles (genotype 1a, H77C) in Huh7 cells, EC50 expressed as class A/B.
Setting [2] is: Hepatitis C virus, Huh-7, 48 h, HCV pseudoparticles (genotype 1a, H77C) in Huh7 cells, average of duplicate, luciferase 2 days after infection.

pEC50: −log10 of the molar value. Where two headings read alike, the source gives them in different places.

For orientation: pEC50 means the EC50 on a negative log10 scale, so that one unit is a factor of ten. Take `COC(=O)[C@H](CNC(=O)C(=O)Nc1ccc(-c2nc(OC)cc(OC)n2)cc1)NC(=O)c1ccc(Nc2nc(NC3(c4ccc(Cl)cc4)CC3)nc(OCC(F)(F)F)n2)cc1` [Compound 3185]: the pEC50 under setting [1] is 8.00 to 11.00.

Consider `COC(=O)[C@H](CNC(=O)C(=O)Nc1ccc(N2CCN(C(C)=O)CC2)cc1)NC(=O)c1ccc(Nc2nc(NC3(c4ccc(Cl)cc4)CC3)nc(OCC(F)(F)F)n2)cc1` [Compound 3186], for which the pEC50 reads like this: under setting [2], 9.15; under setting [1], 8.00 to 11.00. On to `COC(=O)[C@H](CNC(=O)C(=O)Nc1ccc(-c2ccccc2C)cc1)NC(=O)c1ccc(Nc2nc(NC3(c4ccc(Cl)cc4)CC3)nc(OCC(F)(F)F)n2)cc1` [Compound 3187], for which the pEC50 under setting [1] is 8.00 to 11.00.

`COC(=O)[C@H](CNC(=O)C(=O)Nc1ccc(-c2ccc(C)cc2)cc1)NC(=O)c1ccc(Nc2nc(NC3(c4ccc(Cl)cc4)CC3)nc(OCC(F)(F)F)n2)cc1` [Compound 3188]: the pEC50 under setting [1] is 8.00 to 11.00. On the same count and under the same terms, the figure for `COC(=O)[C@H](CNC(=O)C(=O)Nc1ccc(-c2csc(C)n2)cc1)NC(=O)c1ccc(Nc2nc(NC3(c4ccc(Cl)cc4)CC3)nc(OCC(F)(F)F)n2)cc1` [Compound 3190] is 8.00 to 11.00. `COC(=O)[C@H](CNC(=O)C(=O)Nc1ccc(-n2cnnn2)cc1)NC(=O)c1ccc(Nc2nc(NC3(c4ccc(Cl)cc4)CC3)nc(OCC(F)(F)F)n2)cc1` [Compound 3191]: the pEC50 was 9.09 under setting [2] and 8.00 to 11.00 under setting [1]. Regarding `CCOCCOc1ccc(NC(=O)C(=O)NC[C@H](NC(=O)c2ccc(Nc3nc(NC4(c5ccc(Cl)cc5)CC4)nc(OCC(F)(F)F)n3)cc2)C(=O)OC)cc1` [Compound 3192], the pEC50 under setting [1] was 8.00 to 11.00. In the case of `COC(=O)[C@H](CNC(=O)C(=O)Nc1ccc(-c2cc[nH]n2)cc1)NC(=O)c1ccc(Nc2nc(NC3(c4ccc(Cl)cc4)CC3)nc(OCC(F)(F)F)n2)cc1` [Compound 3193], the negative-log EC50 (pEC50) is, setting by setting: under setting [2], 8.99; under setting [1], 8.00 to 11.00.

Turning to `COC(=O)[C@H](CNC(=O)C(=O)Nc1ccc(CN2CCS(=O)(=O)CC2)cc1)NC(=O)c1ccc(Nc2nc(NC3(c4ccc(Cl)cc4)CC3)nc(OCC(F)(F)F)n2)cc1` [Compound 3194], the pEC50 under setting [1] is 8.00 to 11.00.

Take `COC(=O)[C@H](CNC(=O)C(=O)Nc1ccc(Cn2cccn2)cc1)NC(=O)c1ccc(Nc2nc(NC3(c4ccc(Cl)cc4)CC3)nc(OCC(F)(F)F)n2)cc1` [Compound 3195]: the negative-log EC50 (pEC50) under setting [1] was 8.00 to 11.00.

In the case of `COC(=O)[C@H](CNC(=O)C(=O)Nc1ccc(CN2CCCCC2)cc1)NC(=O)c1ccc(Nc2nc(NC3(c4ccc(Cl)cc4)CC3)nc(OCC(F)(F)F)n2)cc1` [Compound 3196], the pEC50 under setting [1] is 8.00 to 11.00. Same read-out and setting: the figure for `COC(=O)[C@H](CNC(=O)C(=O)Nc1ccc(CNC(N)=O)cc1)NC(=O)c1ccc(Nc2nc(NC3(c4ccc(Cl)cc4)CC3)nc(OCC(F)(F)F)n2)cc1` [Compound 3197] is 8.00 to 11.00. Consider `COC(=O)[C@H](CNC(=O)C(=O)Nc1ccc(OCCc2ccccn2)cc1)NC(=O)c1ccc(Nc2nc(NC3(c4ccc(Cl)cc4)CC3)nc(OCC(F)(F)F)n2)cc1` [Compound 3198], for which the pEC50 runs as follows: under setting [2], 8.99; under setting [1], 8.00 to 11.00. Take `COC(=O)[C@H](CNC(=O)C(=O)Nc1ccc(-c2ccno2)cc1)NC(=O)c1ccc(Nc2nc(NC3(c4ccc(Cl)cc4)CC3)nc(OCC(F)(F)F)n2)cc1` [Compound 3199]: the negative logarithm of the EC50 (pEC50) under setting [1] was 8.00 to 11.00. For the compound `COC(=O)[C@H](CNC(=O)C(=O)Nc1ccc(-c2nncn2C)cc1)NC(=O)c1ccc(Nc2nc(NC3(c4ccc(Cl)cc4)CC3)nc(OCC(F)(F)F)n2)cc1` [Compound 3200], the pEC50 under setting [1] was 8.00 to 11.00. For the compound `COC(=O)[C@H](CNC(=O)C(=O)Nc1ccc(-c2csc(N3CCOCC3)n2)cc1)NC(=O)c1ccc(Nc2nc(NC3(c4ccc(Cl)cc4)CC3)nc(OCC(F)(F)F)n2)cc1` [Compound 3201], the pEC50 under setting [1] is 8.00 to 11.00. Still for that read-out and setting: the figure for `COC(=O)[C@H](CNC(=O)C(=O)Nc1ccc(Cn2ccnc2)cc1)NC(=O)c1ccc(Nc2nc(NC3(c4ccc(Cl)cc4)CC3)nc(OCC(F)(F)F)n2)cc1` [Compound 3202] is 8.00 to 11.00. On to `COC(=O)[C@H](CNC(=O)C(=O)Nc1ccc(-n2ccnc2C)cc1)NC(=O)c1ccc(Nc2nc(NC3(c4ccc(Cl)cc4)CC3)nc(OCC(F)(F)F)n2)cc1` [Compound 3203], for which the pEC50 reads like this: under setting [2], 8.26; under setting [1], 8.00 to 11.00.

Turning to `COC(=O)[C@H](CNC(=O)C(=O)Nc1ccc(Cn2ccnc2C)cc1)NC(=O)c1ccc(Nc2nc(NC3(c4ccc(Cl)cc4)CC3)nc(OCC(F)(F)F)n2)cc1` [Compound 3204], the pEC50 under setting [1] is 8.00 to 11.00. Same read-out and setting: the figure for `COCc1ccc(NC(=O)C(=O)NC[C@H](NC(=O)c2ccc(Nc3nc(NC4(c5ccc(Cl)cc5)CC4)nc(OCC(F)(F)F)n3)cc2)C(=O)OC)cc1` [Compound 3205] is 8.00 to 11.00; for `COC(=O)[C@H](CNC(=O)C(=O)Nc1ccc(Oc2ccncc2)cc1)NC(=O)c1ccc(Nc2nc(NC3(c4ccc(Cl)cc4)CC3)nc(OCC(F)(F)F)n2)cc1` [Compound 3206] it is 8.00 to 11.00. As for `COC(=O)[C@H](CNC(=O)C(=O)Nc1ccc(Oc2cccnc2)cc1)NC(=O)c1ccc(Nc2nc(NC3(c4ccc(Cl)cc4)CC3)nc(OCC(F)(F)F)n2)cc1` [Compound 3207], the pEC50 under setting [1] was 8.00 to 11.00. The same measure, in the same setting: to `COC(=O)[C@H](CNC(=O)C(=O)Nc1ccc(OC2CCOCC2)cc1)NC(=O)c1ccc(Nc2nc(NC3(c4ccc(Cl)cc4)CC3)nc(OCC(F)(F)F)n2)cc1` [Compound 3208] belongs 8.00 to 11.00; to `COC(=O)[C@H](CNC(=O)C(=O)Nc1ccc(-c2ncco2)cc1)NC(=O)c1ccc(Nc2nc(NC3(c4ccc(Cl)cc4)CC3)nc(OCC(F)(F)F)n2)cc1` [Compound 3209], 8.00 to 11.00. Turning to `CCOc1ccc(NC(=O)C(=O)NC[C@H](NC(=O)c2ccc(Nc3nc(NC4(c5ccc(Cl)cc5)CC4)nc(OCC(F)(F)F)n3)cc2)C(=O)OC)cc1` [Compound 3210], the pEC50 runs as follows: under setting [2], 9.12; under setting [1], 8.00 to 11.00. Turning to `COC(=O)[C@H](CNC(=O)C(=O)Nc1ccc(C(C)(C)C)cc1)NC(=O)c1ccc(Nc2nc(NC3(c4ccc(Cl)cc4)CC3)nc(OCC(F)(F)F)n2)cc1` [Compound 3211], the pEC50 under setting [1] was 8.00 to 11.00.

For the compound `COC(=O)[C@H](CNC(=O)C(=O)Nc1ccc(C(C)C)cc1)NC(=O)c1ccc(Nc2nc(NC3(c4ccc(Cl)cc4)CC3)nc(OCC(F)(F)F)n2)cc1` [Compound 3212], the negative logarithm of the EC50 (pEC50) under setting [1] was 8.00 to 11.00. Still for that read-out and setting: to `CCc1ccc(NC(=O)C(=O)NC[C@H](NC(=O)c2ccc(Nc3nc(NC4(c5ccc(Cl)cc5)CC4)nc(OCC(F)(F)F)n3)cc2)C(=O)OC)cc1` [Compound 3213] belongs 8.00 to 11.00. Still for that read-out and setting: the figure for `COC(=O)[C@H](CNC(=O)C(=O)Nc1ccc(OC(F)(F)F)cc1)NC(=O)c1ccc(Nc2nc(NC3(c4ccc(Cl)cc4)CC3)nc(OCC(F)(F)F)n2)cc1` [Compound 3214] is 8.00 to 11.00.

As for `COC(=O)[C@H](CNC(=O)C(=O)Nc1ccc(OC(F)F)cc1)NC(=O)c1ccc(Nc2nc(NC3(c4ccc(Cl)cc4)CC3)nc(OCC(F)(F)F)n2)cc1` [Compound 3215], the pEC50 under setting [1] is 8.00 to 11.00.

Regarding `COC(=O)[C@H](CCNC(=O)C(=O)Nc1ccc(C)cc1)NC(=O)c1ccc(Nc2nc(NC3(c4ccc(Cl)cc4)CC3)nc(OCC(F)(F)F)n2)cc1` [Compound 3217], the pEC50 by setting is: (HCV pseudoparticles (genotype 1a, H77C) in Huh7 cells, average of duplicate, luciferase 2 days after infection) 10.06; (read-out: Activity (EC50 class), HCV pseudoparticles (genotype 1a, H77C) in Huh7 cells, EC50 expressed as class A/B) 8.00 to 11.00. Regarding `COC(=O)[C@H](CCNC(=O)C(=O)Nc1ccc(CCO)cc1)NC(=O)c1ccc(Nc2nc(NC3(c4ccc(Cl)cc4)CC3)nc(OCC(F)(F)F)n2)cc1` [Compound 3218], the pEC50 under setting [1] was 8.00 to 11.00. The same measure, in the same setting: the figure for `O=C(NCC[C@H](NC(=O)c1ccc(Nc2nc(NC3(c4ccc(Cl)cc4)CC3)nc(OCC(F)(F)F)n2)cc1)C(=O)O)C(=O)Nc1ccc(Cc2ccncc2)cc1` [Compound 3224] is 8.00 to 11.00. In the case of `O=C(NCC[C@H](NC(=O)c1ccc(Nc2nc(NC3(c4ccc(Cl)cc4)CC3)nc(OCC(F)(F)F)n2)cc1)C(=O)O)C(=O)Nc1ccc(-n2cnc(Cl)c2Cl)cc1` [Compound 3225], the pEC50 is 7.77 under setting [2] and 6.00 to 8.00 under setting [1]. For `O=C(NCC[C@H](NC(=O)c1ccc(Nc2nc(NC3(c4ccc(Cl)cc4)CC3)nc(OCC(F)(F)F)n2)cc1)C(=O)O)C(=O)Nc1ccc(OCC(F)(F)F)cc1` [Compound 3226], under setting [1], the pEC50 is 8.00 to 11.00. For `O=C(NCC[C@H](NC(=O)c1ccc(Nc2nc(NC3(c4ccc(Cl)cc4)CC3)nc(OCC(F)(F)F)n2)cc1)C(=O)O)C(=O)Nc1ccc(N2CCCC2=O)cc1` [Compound 3227], the pEC50 under setting [1] was 8.00 to 11.00.

In the case of `O=C(NCC[C@H](NC(=O)c1ccc(Nc2nc(NC3(c4ccc(Cl)cc4)CC3)nc(OCC(F)(F)F)n2)cc1)C(=O)O)C(=O)Nc1ccc(-n2ccc(C(F)(F)F)n2)cc1` [Compound 3228], under setting [1], the pEC50 was 8.00 to 11.00. Still for that read-out and setting: to `O=C(NCC[C@H](NC(=O)c1ccc(Nc2nc(NC3(c4ccc(Cl)cc4)CC3)nc(OCC(F)(F)F)n2)cc1)C(=O)O)C(=O)Nc1ccc(C(O)N2CCOCC2)cc1` (stereo partly shown) [Compound 3229] belongs 6.00 to 8.00; to `O=C(NCC[C@H](NC(=O)c1ccc(Nc2nc(NC3(c4ccc(Cl)cc4)CC3)nc(OCC(F)(F)F)n2)cc1)C(=O)O)C(=O)Nc1ccc(-n2cncn2)cc1` [Compound 3231], 8.00 to 11.00. On the same count and under the same terms, the figure for `O=C(NCC[C@H](NC(=O)c1ccc(Nc2nc(NC3(c4ccc(Cl)cc4)CC3)nc(OCC(F)(F)F)n2)cc1)C(=O)O)C(=O)Nc1ccc(N2CCN(Cc3ccccc3)CC2)cc1` [Compound 3232] is 8.00 to 11.00. In the case of `Cc1cc(C)nc(N(C)c2ccc(NC(=O)C(=O)NCC[C@H](NC(=O)c3ccc(Nc4nc(NC5(c6ccc(Cl)cc6)CC5)nc(OCC(F)(F)F)n4)cc3)C(=O)O)cc2)n1` [Compound 3234], the pEC50 by setting is: under setting [2], 9.62; under setting [1], 8.00 to 11.00.

For the compound `Cc1nnnn1-c1ccc(NC(=O)C(=O)NCC[C@H](NC(=O)c2ccc(Nc3nc(NC4(c5ccc(Cl)cc5)CC4)nc(OCC(F)(F)F)n3)cc2)C(=O)O)cc1` [Compound 3236], the negative-log EC50 (pEC50) under setting [1] is 8.00 to 11.00.

Turning to `O=C(NCC[C@H](NC(=O)c1ccc(Nc2nc(NC3(c4ccc(Cl)cc4)CC3)nc(OCC(F)(F)F)n2)cc1)C(=O)O)C(=O)Nc1ccc(-n2cccn2)cc1` [Compound 3237], under setting [1], the pEC50 was 8.00 to 11.00.
